We go through 47 compounds from article PMC3025922 (BMC Biology, 2010).

Series [1] is described as follows: MTT cytotoxicity assay, IMR90. It counts as cell-based. Conditions: human, IMR90, 0.01 - 40 μM, 72 h.
Experimental: (§1) LNCaP-S14 (10,000 cells), PC3, DU145 or IMR90 cells (5000 cells) were seeded in 96-well plates and treated with increasing concentrations of the respective SMIPs for 72 h. Cell viability was assessed using the MTT cell proliferation assay (ATCC®, Middlesex, UK) according to the manufacturer's protocol. IC50 was calculated using the BioDataFit 1.02 software http://www.changbioscience.com/stat/ec50.html.
In series [2] the test system is LNCaP-S14 cells. The experiment in a line: MTT cytotoxicity assay, LNCaP-S14. The settings on record: Homo sapiens, 72 h, read-out: IC50 (MTT cytotoxicity).
Experimental: as §1
Series [3] concerns nuclear p27 in LNCaP-S14 cells. It counts as cell-based, human. The settings on record: for hit in primary screen (increased percentage of p27 positive cells): LNCaP-S14, ~5 to 35 μM, 18 h.
The mark [4] stands for this setting: primary screening, nuclear p27 in LNCaP-S14 cells.
The mark [5] stands for this setting: primary screening, S = strong, M = medium, W = weak by Z score.

Where two headings read alike, the source gives them in different places.

As for `C/C=C(/C)C(=O)O[C@H]1C(C)=C2[C@H]([C@@H]1OC(=O)CCCCCCC)[C@@](C)(OC(C)=O)C[C@H](OC(=O)CCC)[C@@]1(O)[C@H]2OC(=O)[C@@]1(C)O` [Thapsigargin, reference compound], the IC50 in series [1] is 31 nM; in series [2], 7.8 nM. Further, the “hit in primary screen (increased percentage of p27 positive cells)” value in series [3] was “identified”.
With `C=C1c2c(Cl)ccc(O)c2C(=O)C2=C(O)C3(O)C(=O)C(C(N)=O)=C(O)C(N(C)C)C3C(O)C12.O=C(O)c1cc(S(=O)(=O)O)ccc1O` (stereo not drawn) [1569K14], in series [3] (setting [4]), the “Z score (aver)” value was 2.51. The Clasf entry in series [3] (setting [5]) was “W (weak (Z score 2-3)”.
On to `CC(C)(C)c1cc2cc(NC(=O)C3CC3)ccc2[nH]1` [520D04], for which the “Z score (aver)” value in series [3] (setting [4]) came to 2.80. Moreover, in series [3] (setting [5]), the Clasf entry was “W (weak (Z score 2-3)”.
The corresponding values for `Nc1ncn(C2OC(CO)C(O)C2O)c(=O)n1` (stereo not drawn) [1570N13] are 7.46 and “S (strong (Z score > 5))”.
In the case of `O=C(NC1=C(Cl)C(=O)c2ccccc2C1=O)OC1CCCCCCC1` [567K05], in series [3] (setting [4]), the “Z score (aver)” value came out at 2.74. The Clasf result in series [3] (setting [5]) is “W (weak (Z score 2-3)”.
On to `Cc1ccc(-c2cn3c([n+]2-c2ccc(C)cc2)CCCCC3)cc1` [1159I14], for which, in series [3] (setting [4]), the “Z score (aver)” value came to 2.49. Moreover, the Clasf result in series [3] (setting [5]) was “W (weak (Z score 2-3)”.
The corresponding values for `Cl.OCCN1CCN(CCCN2c3ccccc3Sc3ccc(C(F)(F)F)cc32)CC1` [1568P22] are 2.76 and “W (weak (Z score 2-3)”.
The corresponding values for `CC(C)(C)c1ccc(C(=O)N2CCC(N(C3CC3)S(=O)(=O)c3cccc(C(F)(F)F)c3)CC2)cc1` [521J08] are 2.93 and “W (weak (Z score 2-3)”.
For `Cl.N=C(N)NC(=O)c1nc(Cl)c(N)nc1N` [500J04], the “Z score (aver)” value in series [3] (setting [4]) is 2.43. The Clasf result in series [3] (setting [5]) is on record as “W (weak (Z score 2-3)”.
With `Cc1nc(NCCc2c[nH]c3ccccc23)cc(-c2ccc(F)cc2)n1` [1306E02], the “Z score (aver)” value in series [3] (setting [4]) was 3.02. Besides, the Clasf entry in series [3] (setting [5]) is given as “M (medium (Z score 3-5))”.
The corresponding values for `CSc1ccc2c(c1)C(N1CCN(C)CC1)Cc1ccccc1S2.O=C(O)C=CC(=O)O` (stereo not drawn) [1569K11] are 4.55 and “M (medium (Z score 3-5))”.
The corresponding values for `CN1CCCN(C(c2ccccc2)c2ccc(Cl)cc2)CC1.Cl` (stereo not drawn) [1568J08] are 2.49 and “W (weak (Z score 2-3)”.
The corresponding values for `CCCN1CCC(N(C(=O)c2cccc(C(F)(F)F)c2)c2ccc3[nH]c(C(C)(C)C)cc3c2)CC1` [1306L20] are 6.78 and “S (strong (Z score > 5))”.
As for `Clc1ccc(CSC(Cn2ccnc2)c2ccc(Cl)cc2Cl)cc1.O=[N+]([O-])O` (stereo not drawn) [500K22], the “Z score (aver)” value in series [3] (setting [4]) worked out at 3.37. In addition, the Clasf entry in series [3] (setting [5]) is recorded as “M (medium (Z score 3-5))”.
On to `NCC(O)c1ccc(O)c(O)c1` (stereo not drawn) [500L12], for which the “Z score (aver)” value in series [3] (setting [4]) stood at 9.42. For the same compound, the Clasf result in series [3] (setting [5]) is on record as “S (strong (Z score > 5))”.
With `CC[C@H](CO)Nc1nc(NCc2ccccc2)c2ncn(C(C)C)c2n1` [roscovitine, reference compound], the “percentage of p27 positive cells” value in series [3] was “up to 50%”.
For `N#CC(C#N)=NNc1ccc(OC(F)(F)F)cc1` [1362E11], in series [3], the Clasf result is “S (key: S: strong (Z score > 5); M: medium (Z score 3-5); W: weak (Z score 2-3)” and the “Z score (aver)” value is reported as 6.18.
In the case of `O=C(Nc1ccccc1)Nc1ccc(SCc2nc(OCC(F)(F)F)cc(OCC(F)(F)F)n2)cc1` [521I09], the “Z score (aver)” value in series [3] (setting [4]) is on record as 3.70. For the same compound, the Clasf entry in series [3] (setting [5]) is listed as “M (medium (Z score 3-5))”.
With `N#CC1(C#N)C(c2cccc(I)c2)C(C(N)=O)N2C=Cc3ccccc3C21` (stereo not drawn) [669M10], in series [3] (setting [4]), the “Z score (aver)” value came to 6.90. Further, in series [3] (setting [5]), the Clasf entry is on record as “S (strong (Z score > 5))”.
The corresponding values for `Cc1cc(Br)ccc1NC(=O)CCCc1c[nH]c2ccccc12` [1520E21] are 4.74 and “M (medium (Z score 3-5))”.
Consider `CCCCCCC[N+](CC)(CC)CCCCc1ccc(Cl)cc1.Cc1ccc(S(=O)(=O)[O-])cc1` [1568P20], for which the “Z score (aver)” value in series [3] (setting [4]) amounted to 9.16. Also, in series [3] (setting [5]), the Clasf result was “S (strong (Z score > 5))”.
As to `CC=C(C(=CC)c1ccc(O)cc1)c1ccc(O)cc1` [502G13], the “Z score (aver)” value in series [3] (setting [4]) is listed as 2.95. Besides, the Clasf result in series [3] (setting [5]) is “W (weak (Z score 2-3)”.
Take `COC(=O)C1=C(N)n2c(sc(=Cc3ccc(Cl)cc3)c2=O)=C(C(=O)OC)C1c1ccc(Cl)cc1` (stereo not drawn) [1159F17]: the “Z score (aver)” value in series [3] (setting [4]) was determined as 2.15. For the same compound, the Clasf entry in series [3] (setting [5]) is “W (weak (Z score 2-3)”.
Take `NCC1OC(OC2C(N)CC(N)C(O)C2OC2OC(CO)C(O)C2O)C(N)C(O)C1O.O=S(=O)(O)O` (stereo not drawn) [1570G18]: in series [3] (setting [4]), the “Z score (aver)” value turned out to be 6.58. The Clasf entry in series [3] (setting [5]) is “S (strong (Z score > 5))”.
As for `OCCN1CCN(CCCN2c3ccccc3Sc3ccc(Cl)cc32)CC1` [1568I12], the “Z score (aver)” value in series [3] (setting [4]) stood at 3.13. Besides, the Clasf entry in series [3] (setting [5]) was “M (medium (Z score 3-5))”.
Turning to `CC1OC(=O)C(C(C)C)NC(=O)C(C(C)C)OC(=O)C(C(C)C)NC(=O)C(C)OC(=O)C(C(C)C)NC(=O)C(C(C)C)OC(=O)C(C(C)C)NC(=O)C(C)OC(=O)C(C(C)C)NC(=O)C(C(C)C)OC(=O)C(C(C)C)NC1=O` (stereo not drawn) [1362N07], the “Z score (aver)” value in series [3] (setting [4]) is reported as 7.42. In addition, the Clasf entry in series [3] (setting [5]) is reported as “S (strong (Z score > 5))”.
The corresponding values for `COc1cc(C2c3cc4c(cc3C(OC3OC5COC(C)OC5C(O)C3O)C3COC(=O)C23)OCO4)cc(OC)c1O` (stereo not drawn) [1569O13] are 6.74 and “S (strong (Z score > 5))”.
The corresponding values for `O=C1C=C2C=CC3CC2(O1)C1CCCCN31` (stereo not drawn) [1570J03] are 3.84 and “M (medium (Z score 3-5))”.
`CC[C@@]1(O)C(=O)OCc2c1cc1n(c2=O)Cc2cc3ccccc3nc2-1` [camptothecin, reference compound]: the “hit in primary screen (increased percentage of p27 positive cells)” value in series [3] was “identified”.
As for `CC(=O)Nc1ccc(S(=O)(=O)N(Cc2ccc3c(c2)CCO3)C2CC2)cc1` [541J07], the “Z score (aver)” value in series [3] (setting [4]) was found to be 3.47. Besides, the Clasf entry in series [3] (setting [5]) is recorded as “M (medium (Z score 3-5))”.
`COc1ccc(CCN2CCC(Nc3nc4ccccc4n3Cc3ccc(F)cc3)CC2)cc1` [1568K14]: in series [3], the Clasf entry is given as “S (key: S: strong (Z score > 5); M: medium (Z score 3-5); W: weak (Z score 2-3)” and the “Z score (aver)” value was 8.76.
For `CS(=O)(=O)c1ccc(F)c(N2C(=O)C=CC2=O)c1` [518H15], the “Z score (aver)” value in series [3] (setting [4]) was 7.59. The Clasf entry in series [3] (setting [5]) was “S (strong (Z score > 5))”.
The corresponding values for `CN(C)CCC=C1c2ccccc2Sc2ccc(Cl)cc21.Cl` [1569E17] are 3.86 and “M (medium (Z score 3-5))”.
As for `O=C1C(Cl)=C(N2CCC(C(=O)N3CCOCC3)CC2)C(=O)c2ccccc21` [567A03], the “Z score (aver)” value in series [3] (setting [4]) worked out at 6.25. Further, the Clasf result in series [3] (setting [5]) was “S (strong (Z score > 5))”.
The corresponding values for `CCN(CC)c1cc(-c2ccc(F)cc2)nc(-c2ccncc2)n1` [1306I06] are 3.11 and “M (medium (Z score 3-5))”.
In the case of `CNc1ccc2oc(CC3OC4(CCC3C)OC(C(C)C(=O)c3ccc[nH]3)C(C)CC4C)nc2c1C(=O)O` (stereo not drawn) [1361O18], in series [3] (setting [4]), the “Z score (aver)” value was 8.06. The Clasf entry in series [3] (setting [5]) is “S (strong (Z score > 5))”.
Turning to `CCN(CC)CCOC(=O)C1(C2CCCCC2)CCCCC1.Cl` [500I04], in series [3] (setting [4]), the “Z score (aver)” value worked out at 5.96. Moreover, the Clasf entry in series [3] (setting [5]) is on record as “S (strong (Z score > 5))”.
The corresponding values for `C=C(CC)C(=O)c1ccc(OCC(=O)O)c(Cl)c1Cl` [1568D20] are 3.20 and “M (medium (Z score 3-5))”.
The corresponding values for `CN(C)CCN(Cc1ccc(Cl)cc1)c1ccccn1.Cl` [1570B15] are 8.42 and “S (strong (Z score > 5))”.
`COC(=O)Nc1nc2cc(Sc3ccccc3)ccc2[nH]1` [1568J21]: the “Z score (aver)” value in series [3] (setting [4]) is 3.73. Besides, the Clasf result in series [3] (setting [5]) was “M (medium (Z score 3-5))”.
As to `O=c1c(C(F)(F)F)cccn1CCc1nc(-c2ccccc2)cs1` [1520N01], in series [3] (setting [4]), the “Z score (aver)” value is on record as 3.32. For the same compound, the Clasf entry in series [3] (setting [5]) is recorded as “M (medium (Z score 3-5))”.
As to `COc1ccccc1C(=O)N1c2ccccc2Sc2ccccc21` [1160M09], in series [3] (setting [4]), the “Z score (aver)” value turned out to be 2.71. Moreover, in series [3] (setting [5]), the Clasf entry is reported as “W (weak (Z score 2-3)”.
Turning to `CCC(C(=O)C(C)C(O)C(C)CCc1ccc(C)c(O)c1C(=O)[O-])C1OC(CC)(C2CCC(O)(CC)C(C)O2)CC1C.[Na+]` (stereo not drawn) [1570F17], the “Z score (aver)” value in series [3] (setting [4]) was found to be 8.04. Moreover, the Clasf result in series [3] (setting [5]) is “S (strong (Z score > 5))”.
Turning to `CCOC(=O)c1cc2cccc(NC(=O)c3ccccc3OC(C)=O)c2[nH]1` [519O17], the “Z score (aver)” value in series [3] (setting [4]) is recorded as 9.25. In addition, the Clasf result in series [3] (setting [5]) was “S (strong (Z score > 5))”.
In the case of `Cl.Fc1ccc(C(OCCN2CCN(CCCc3ccccc3)CC2)c2ccc(F)cc2)cc1` [1569M13], in series [3] (setting [4]), the “Z score (aver)” value is listed as 5.81. In series [3] (setting [5]), the Clasf result was “S (strong (Z score > 5))”.
As to `CCCCOc1ccc(C(=O)CCN2CCCCC2)cc1.Cl` [1568F10], the “Z score (aver)” value in series [3] (setting [4]) worked out at 2.33. Also, the Clasf entry in series [3] (setting [5]) is “W (weak (Z score 2-3)”.
The corresponding values for `COc1ccc2[nH]cc(CCNC(=O)OCC3CC4CCC3C4)c2c1` (stereo not drawn) [567M20] are 4.13 and “M (medium (Z score 3-5))”.
